In ChEMBL document CHEMBL5137055, “Near-Infrared Fluorescent Probes as Imaging and Theranostic Modalities for Amyloid-Beta and Tau Aggregates in Alzheimer's Disease” (J Med Chem, 2022):
pIC50, pKd, pKi: −log10 of the molar value.

What was measured:
[1] = biological target: T1, Amyloid-beta precursor protein (Homo sapiens, UniProt P05067); assay: Binding affinity to human amyloid beta (1 to 42) monomer measured by fluorescence assay
[2] = biological target: T1, Amyloid-beta precursor protein; assay: Binding affinity to human amyloid beta (1 to 42) oligomer measured by fluorescence assay
[3] = biological target: T1, Amyloid-beta precursor protein; assay: Binding affinity to human amyloid beta (1 to 42) aggregates measured by fluorescence assay
[4] = Binding affinity to amyloid beta (unknown origin) aggregates; design: species or system Homo sapiens
[5] = Lipophilicity, logP of compound; type: physicochemical; details: octanol/water
[6] = Drug uptake in brain of Tg mouse; type: ADME, tissue-based; details: for tissue uptake: Tg, brain, read-out: Drug uptake
[7] = Binding affinity to tau protein (unknown origin); design: species or system Homo sapiens
[8] = Binding affinity to amyloid beta (unknown origin); design: species or system Homo sapiens
[9] = biological target: T1, Amyloid-beta precursor protein; assay: Binding affinity to amyloid beta (1 to 42) (unknown origin) aggregates
[10] = biological target: T1, Amyloid-beta precursor protein; assay: Binding affinity to amyloid beta (1 to 40) (unknown origin) fibrils
[11] = biological target: T1, Amyloid-beta precursor protein; assay: Binding affinity to amyloid beta (1 to 42) (unknown origin) fibrils
[12] = biological target: T1, Amyloid-beta precursor protein; assay: Binding affinity to amyloid beta (1 to 40) (unknown origin) monomer
[13] = biological target: T1, Amyloid-beta precursor protein; assay: Binding affinity to amyloid beta (1 to 42) (unknown origin) monomer
[14] = biological target: T1, Amyloid-beta precursor protein; assay: Binding affinity to amyloid beta (1 to 40) (unknown origin) oligomer
[15] = biological target: T1, Amyloid-beta precursor protein; assay: Displacement of [125I]IMPY from amyloid beta (1 to 42) (unknown origin) measured by competitive radioligand binding assay
[16] = biological target: T1, Amyloid-beta precursor protein; assay: Binding affinity to human amyloid beta (1 to 40) monomer measured by fluorescence assay
[17] = biological target: T1, Amyloid-beta precursor protein; assay: Binding affinity to human amyloid beta (1 to 40) aggregates measured by fluorescence assay
[18] = biological target: T1, Amyloid-beta precursor protein; assay: Binding affinity to amyloid beta (1 to 42) (unknown origin) oligomer
[19] = Inhibition of amyloid beta (unknown origin) self-induced aggregation; design: species or system Homo sapiens
[20] = species on record: Homo sapiens; assay: Inhibition of amyloid beta (unknown origin) assessed as decrease in amyloid beta monomers
[21] = Binding affinity to amyloid beta (unknown origin) monomer; design: species or system Homo sapiens
[22] = Drug uptake in brain of Tg mouse at 2 mins post injection; type: ADME, tissue-based; details: read-out: Drug uptake
[23] = biological target: T1, Amyloid-beta precursor protein; assay: Binding affinity to amyloid beta (1 to 40) (unknown origin) aggregates
[24] = species on record: Homo sapiens; assay: Inhibition of amyloid beta (unknown origin) measured by ThT-based fluorimetric assay; details: concentration not given here

T1 sequence (P05067 whole entry): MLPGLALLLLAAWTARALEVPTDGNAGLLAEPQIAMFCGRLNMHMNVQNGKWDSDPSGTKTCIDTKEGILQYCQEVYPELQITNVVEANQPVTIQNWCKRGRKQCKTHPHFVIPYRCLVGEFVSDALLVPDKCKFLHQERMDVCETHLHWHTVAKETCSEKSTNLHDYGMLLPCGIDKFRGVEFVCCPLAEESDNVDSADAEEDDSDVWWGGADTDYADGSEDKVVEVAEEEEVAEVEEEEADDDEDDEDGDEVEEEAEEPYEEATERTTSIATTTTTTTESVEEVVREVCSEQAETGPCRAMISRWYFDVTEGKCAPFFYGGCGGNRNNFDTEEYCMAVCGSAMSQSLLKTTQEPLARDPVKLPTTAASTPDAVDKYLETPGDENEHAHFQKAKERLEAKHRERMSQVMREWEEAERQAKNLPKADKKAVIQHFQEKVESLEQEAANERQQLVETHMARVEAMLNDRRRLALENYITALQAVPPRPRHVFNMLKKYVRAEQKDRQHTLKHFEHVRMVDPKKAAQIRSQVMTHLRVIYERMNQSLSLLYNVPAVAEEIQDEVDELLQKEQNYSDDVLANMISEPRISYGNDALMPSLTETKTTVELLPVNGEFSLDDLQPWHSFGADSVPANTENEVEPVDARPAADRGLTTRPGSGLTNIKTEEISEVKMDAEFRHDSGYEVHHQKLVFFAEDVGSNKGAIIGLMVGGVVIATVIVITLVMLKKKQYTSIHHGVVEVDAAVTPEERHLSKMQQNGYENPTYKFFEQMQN

CCN(CC)c1ccc(/C=C/C2=CC(/C=C/c3ccc(N(CC)CC)nc3)=[O+][B-](F)(F)O2)cn1
pKd [1]: 7.62
pKd [2]: 7.80
pKd [3]: 7.57

CN(C)c1ccc2cc(/C=C/C=C(C#N)C#N)ccc2c1
pKd [4]: 8.06
pKi [4]: 7.01
logP [5]: 4.1
tissue uptake [6]: 1.9 %ID/g

CN(C)c1ccc2nc(/C=C/C=C/C=C(C#N)C#N)cnc2c1
pKd [7]: 7.37
pKd [8]: 7.48
Drug uptake ([6]; in vivo): 7.76%

Cc1cc(/C=C/C=C/c2ccc(N(C)C)cc2)n2c1C=C1C=CC=[N+]1[B-]2(F)F
pKd [7]: 8.54
pKd [4]: 6.49

CN(C)c1ccc(/C=C/C=C/C=C2C(=O)OC(C)(C)OC2=O)cc1
pKi [9]: 6.45

COCCOCCn1c2ccccc2c2cc(/C=C/c3cc[n+](C)c4ccccc34)ccc21
pKd [10]: 4.88
pKd [11]: 4.94
pKd [12]: 4.02
pKd [13]: 4.40

N#CC(C#N)=Cc1ccc(-c2ccc(-c3ccc(O)cc3)s2)s1
pKd [8]: 7.26
pKi [8]: 8.00

CC1=CC(C)=[N+]2C1=Cc1ccc(/C=C/c3ccc(-c4ccc([125I])cc4)s3)n1[B-]2(F)F
pKi [9]: 6.97

COCCOCCn1c2ccc(F)cc2c2cc(/C=C/c3cc[n+](CCO)c4ccccc34)ccc21
pKd [10]: 5.72
pKd [12]: 5.49
pKd [14]: 6.18

COC(=O)/C(C#N)=C/C=C/C=C/c1ccc(N(C)C)cc1
pKd [15]: 6.97

CC(=C(C#N)C#N)c1ccc2cc(N(C)C)ccc2c1
pKi [4]: 8.00

C[N+]1=C(/C=C/c2ccc(N3CCCC3)cc2)C(C)(C)c2ccccc21
pKd [10]: 5.08
pIC50 [7]: 8.29

Cc1c(/C=C/C2=CC(/C=C/c3cnn(-c4ccccc4)c3C)=[O+][B-](F)(F)O2)cnn1-c1ccccc1
pKd [2]: 7.16
pKd [16]: 7.07
pKd [17]: 7.28

CCCCN(CCCC)c1ccc2cc(/C=C/c3cc[n+](CCO)c4ccccc34)ccc2c1
pKd [10]: 4.48
pKd [11]: 3.07
pKd [12]: 3.61
pKd [13]: 2.96
pKd [14]: 4.38
pKd [18]: 3.31

COCCOCCOCCOC(=O)/C(C#N)=C/c1ccc(-c2ccc3cc(N4CCCCC4)ccc3c2)n1C
pKd [4]: 5.64

CN(C)c1ccc2cc(/C=C/C=C/C=C(C#N)C#N)ccc2c1
pKd [4]: 8.72
pKi [4]: 7.49
logP [5]: 4.48
tissue uptake [6]: 3.4 %ID/g

CCOC(=O)CN1C(=O)S/C(=C\C=C\c2ccc3c(c2)Sc2ccccc2N3C)C1=O
pKd [4]: 7.99
logP [5]: 3.6
pIC50 [19]: 5.74

CN(C)c1ccc(/C=C/c2cc(/C=C/c3ccc(N(C)C)cc3)ncn2)cc1
pKd [7]: 7.27
pIC50 [8]: 8.40

Nc1c(/N=N/c2ccc(-c3ccc(/N=N/c4cc(S(=O)(=O)O)c5ccccc5c4N)cc3)cc2)cc(S(=O)(=O)O)c2ccccc12
ID50 [20]: 3.4 µM

CN(CCO)c1ccc2cc(/C=C/C=C/C=C(C#N)C#N)ccc2c1
pKd [15]: 7.84

CC1=[N+]2C(=C(/C=C/c3ccc(N(C)C)cc3)c3ccc(C)n3[B-]2(F)F)C=C1
pKd [21]: 6.49

CN(C)c1ccc(/C=C/C=C/C=C/C=C(C#N)C#N)cn1
pKi [8]: 7.03

COCCOCCOCC1=C2C(C)=CC(/C=C/c3ccc(N(C)C)cc3)=[N+]2[B-](F)(F)n2c(/C=C/c3ccc(N(C)C)cc3)cc(C)c21
pKd [21]: 7.01

Cc1cc(/C=C/c2ccc(N(C)C)s2)n2c1C=C1C=CC=[N+]1[B-]2(F)F
pKd [21]: 7.26

Cc1cc(/C=C/c2ccc(N(C)C)o2)n2c1C=C1C=CC=[N+]1[B-]2(F)F
pKd [21]: 6.83

Cc1ccc2c(sc(-c3ccc4c(c3)sc(-c3ccc(N(C)C)cc3)[n+]4C)[n+]2C)c1S(=O)(=O)O
pKd [7]: 5.72

CC[n+]1c(/C=C/C=C/c2ccc(N(C)C)cc2)sc2ccccc21
pKd [10]: 5.91
pKd [7]: 6.90

Cc1cc(/C=C/c2ccc(-c3ccc(N(C)C)cc3)o2)n2c1C=C1C=CC=[N+]1[B-]2(F)F
pKd [21]: 7.74

COC(=O)C(=C/C=C/C=C/c1ccc(N(C)C)cc1)C(=O)OC
pKi [8]: 6.19
pKi [15]: 6.19

CCCCN(CCCC)c1ccc2cc(/C=C/c3cc[n+](C)c4ccccc34)ccc2c1
pKd [10]: 4.41
pKd [11]: 3.61
pKd [12]: 4.15
pKd [13]: 3.55
pKd [14]: 4.70
pKd [18]: 3.89

CCOC(=O)CN1C(=O)/C(=C/c2ccc3c(c2)Sc2ccccc2N3C)SC1=S
pKd [4]: 8.12
logP [5]: 3.68
pIC50 [19]: 6.17

CCCN(CCC)c1ccc(/C=C/c2cc[n+](OCC)c3ccccc23)cc1
pKd [10]: 5.95
pKd [11]: 5.50
pKd [12]: 5.21
pKd [13]: 4.88

C[n+]1ccc(/C=C/c2ccc(N(c3ccccc3)c3ccccc3)cc2)c2ccccc21
pKd [10]: 4.84
pKd [11]: 4.76
pKd [12]: 4.59
pKd [13]: 4.50

COCCOCCOCCOC(=O)/C(C#N)=C/c1ccc(-c2ccc3cc(N4CCCCC4)ccc3c2)o1
pKd [4]: 6.44

COCCOCCn1c2ccccc2c2cc(/C=C/c3cc[n+](C)cc3)ccc21
pKd [10]: 3.71

CN(C)c1ccc(/C=C/C=C/C=C(C#N)C#N)cc1
pKd [9]: 7.57
pKi [9]: 7.43

COc1ccc(/C=C/C2=[N+]3C(=C(/C=C/c4ccc(N(C)C)cc4)c4ccc(/C=C/c5ccc(OC)cc5)n4[B-]3(F)F)C=C2)cc1
pKd [21]: 6.49

CNc1ccc(-c2nc3ccc(O)cc3s2)cc1[18F] [FLUTEMETAMOL F 18]
pKd [8]: 8.17

CCCCN(CCCC)c1ccc2cc(/C=C/c3c[n+](C)cc4ccccc34)ccc2c1
pKd [10]: 2.96
pKd [11]: 4.01
pKd [12]: 4.09
pKd [13]: 4.60
pKd [14]: 4.44
pKd [18]: 4.68

O=C1NC(=S)NC(=O)C1=C/C=C/C=C/C1C(=O)NC(=S)NC1O (configuration not stated)
tissue uptake at 2 min [22]: 0.04 %ID/g

CN(C)c1ccc(-c2ccc(/C=C/C3=CC(=C(C#N)C#N)c4ccccc4N3CCCS(=O)(=O)O)s2)cc1
pKd [8]: 6.77

COCCOCCOCCOC(=O)/C(C#N)=C/c1ccc(-c2ccc3cc(N4CCCCC4)ccc3c2)s1
pKd [4]: 6.28

CN(C)c1ccc(/C=C/C=C/C=C/C=C(C#N)C#N)cc1
pKi [8]: 7.85

CC(=C(C#N)C#N)c1ccc2cc(N(C)CCF)ccc2c1
pKi [4]: 9.70

CN(C)c1ccc(/C=C/c2cnc3ccccc3n2)s1
pKd [7]: 6.89
pKd [8]: 7.60

Cc1cc(/C=C/c2ccc(-c3ccc(N(C)C)cc3)s2)n2c1C=C1C=CC=[N+]1[B-]2(F)F
pKd [21]: 7.57

CCCC[N+]1=C(/C=C/c2ccc(N(CC)CC)cc2)C(C)(C)c2ccccc21
pKd [10]: 6.03
pIC50 [7]: 8.85
pKi [23]: 8.86

Cc1ccc2nc(/C=C/c3ccc(N)cc3)ccc2c1
inhibition [24]: 73%

COCCOCCn1c2ccccc2c2cc(/C=C/c3cc[n+](CCO)cc3)ccc21
pKd [10]: 3.34

CN(C)c1ccc(/C=C/C2=CC(/C=C/c3ccc(N(C)C)cc3)=[O+][B-]3(OC(=O)C(=O)O3)O2)cc1
pKd [1]: 8.49
pKd [2]: 8.42
pKd [17]: 7.42

CC(C)CC1=CC(/C=C/C=C/c2ccc(N(C)C)cc2)=[O+][B-](F)(F)O1
pKd [7]: 4.30
pKd [8]: 5.85

COCCOCCOCC1=C2C(C)=CC(C)=[N+]2[B-](F)(F)n2c(/C=C/c3ccc(N(C)C)cc3)cc(C)c21
pKd [21]: 7.31

CN(C)c1ccc2cc3c(cc2c1)OCC(C=C(C#N)C#N)=C3
pKd [8]: 7.35

CCN1/C(=C/C=C2\CCCC(/C=C(/C#N)C(=O)C(C)(C)C)=C2Cl)C(C)(C)c2ccccc21
pKd [9]: 6.35

CCO[n+]1ccc(/C=C/c2ccc(N(C)C)cc2)c2ccccc21
pKd [10]: 5.37
pKd [11]: 5.11
pKd [12]: 4.89
pKd [13]: 4.75

COCCOCCOCCOC(=O)/C(C#N)=C/c1ccc(N2CCCCC2)cc1
pKd [4]: 4.71

COc1cc(N(C)C)cc(OC)c1/C=C/C=C/C=C/C(C#N)C(=O)OCc1ccco1 (configuration not stated)
pKd [7]: 5.99
pKd [8]: 5.82

COc1ccc(/C=C/c2ccc3n2[B-](F)(F)[N+]2=C(C)C=CC2=C3/C=C/c2ccc(N(C)C)cc2)cc1
pKd [21]: 6.64

COCCOCCn1c2ccccc2c2cc(/C=C/c3cc[n+](CCO)c4ccccc34)ccc21
pKd [10]: 4.04

Cc1cc(/C=C/c2ccc3cc(N(C)C)ccc3c2)n2c1C=C1C=CC=[N+]1[B-]2(F)F
pKd [7]: 8.92
pKd [4]: 6.79

CN(C)c1ncc(/C=C/C=C/C=C/C=C(C#N)C#N)cn1
pKi [8]: 6.01

CCN(CC)c1ccc(/C=C/C2=CC(/C=C/c3ccc(N(C)C)cc3)=[O+][B-](F)(F)O2)cn1
pKd [12]: 6.98
pKd [13]: 7.34
logP [5]: 1.94

C(=C\c1cc(/C=C/c2ccc(N3CCCC3)cc2)ncn1)/c1ccc(N2CCCC2)cc1
pKd [7]: 7.28
pIC50 [8]: 8.70

COc1cc(/C=C/C(O)=C/C(=O)/C=C/c2ccc(OCCCF)c(OC)c2)ccc1O
pKi [8]: 10.15

CN(C)c1ccc2nc(/C=C/c3ccc(C=C(C#N)C#N)cc3)sc2c1
pKd [11]: 6.96

Cc1ccc2nc(-c3ccc(N(C)C)cc3)sc2c1
pKi [10]: 6.84

O=C(O)c1cc(/N=N/c2ccc(-c3ccc(/N=N/c4ccc(O)c(C(=O)O)c4)cc3)cc2)ccc1O [CHRYSAMINE G]
pKi [8]: 6.43

CN(C)c1ncc(/C=C/c2nc3cc(OCC[18F])ccc3[se]2)cn1
pKd [8]: 8.77
logP [5]: 1.28

CN(C)c1ccc(/C=C/C=C/C=C2C(=O)CC(C)(C)CC2=O)cc1
pKi [9]: 6.19

CN(C)c1ccc2nc(C=C(C#N)C#N)sc2c1
pKd [11]: 6.92

Cc1cc(/C=C/c2ccc(N(C)C)cc2)n2c1C=C1C=CC=[N+]1[B-]2(F)F
pKd [7]: 7.36
pKd [21]: 6.72

COc1cc(N(C)C)cc(OC)c1/C=C/C(=O)/C=C(O)/C=C/c1c(OC)cc(N(C)C)cc1OC
pIC50 [7]: 6.11
